Test results published in article PMC6554663, “Pharmaceutical Effects of Inhibiting the Soluble Epoxide Hydrolase in Canine Osteoarthritis” (Frontiers in Pharmacology, 2019).
In brackets after ≈: the same amount, converted by molar mass. Several values for one entry are separate records, joined by “and”; a condition that tells them apart may be missing. Equal entries are not always repeated. Entries after “also recorded” stand apart in the source; their conditions may differ. Where two headings read alike, the source gives them in different places.

Key:
Solubility of sEHI = type: physicochemical; settings: PEG300, organic solvent or mixture
Description: […] The non-dissolved compounds were filtered through a 0.22 μm centrifuge filter at 40°C and the supernatant was further diluted 10 times with methanol. The samples were analyzed by LC/MS-MS.

Microsomal stability = type: in vitro ADME, dog; settings: for % Parent + NADPH / % Parent − NADPH: 60 min, 37°C
Description: Male and female dog liver microsomes (Xenotech) were diluted in potassium phosphate buffer (0.1M, pH 7.4), MgCl2 (3.15 mM), and sodium EDTA (1.05 mM) to a final protein concentration of 1 mg/mL. Compounds were added at 0.1 mM in methanol at 1% and microsomes were activated with 5% (v/v) NADPH regenerating system (100 μL sodium phosphate buffer (0.1M, pH 7.4), 50 μL, glucose-6-phosphate in sodium phosphate buffer (0.1M, pH 7.4), 50 μL NADP+ in sodium phosphate (0.1M, pH 7.4), and 50 μL of 100 Units/mL of […]). […] Compounds were incubated without microsomes or NADPH as negative controls.

[1] = PK analysis in satellite dogs; type: in vivo, dog; settings: beagle, dog, whole blood; for AUC(0-t) / Cmax: detected EC1728, blood
Description: (§1) Eight satellite dogs (2 per each group) had whole blood collected for PK analysis on study Days […]. On Day 1, blood was collected immediately prior to dosing, and again at 0.25, 0.5, 1, 2, 4, 6, and 8 (±5 min) after dosing. On Day 2 through 4, blood was collected 0.5 h (±5 min) after dosing. On Day 5 blood was collected immediately prior to dosing, and again at 0.25, 0.5, 1, 2, 4, 6, 8 (±5 min), 24, 48, and 72 h (±30 min) post treatment. […] For all blood samples, a minimum of 3 mL of whole blood was collected from a suitable vein as per written and approved standard operating procedures. The blood was transferred to K2EDTA (spray dried) blood tube and inverted gently multiple times to ensure proper mixing of the blood and anticoagulant. On study Day 5, synovial fluid was collected by arthrocentesis immediately after the subject completed the questionnaire (approximately […] after dosing). Subjects were anesthetized as per written and approved Standard Operating Procedures. A minimum of 0.1 mL of synovial fluid was collected from each subject. Samples were frozen in an upright position and stored at -80°C ± 4°C before being shipped to UC Davis for analysis.
For PK analysis in the satellite group, individual parameters were calculated by fitting blood concentrations to a non-compartmental analysis using Kinetica software (Thermo Fisher Scientific version 5.1). Using the log-linear trapezoidal method, the area under the curve were calculated and were extrapolated to infinity using the last measured plasma concentration (Clast), defined as the timepoint collected 72 h after the last dose or 8 hr after the first dose on day 1, divided by the terminal slope (λz).

[2] = Blood and synovial fluid concentrations in treated osteoarthritic dogs; type: in vivo, dog; settings: for concentration at 2 h: beagle, dog, oral, EC1728 5 mg/kg; for Blood concentration D5 / Synovial fluid concentration D1 / Synovial fluid concentration D5: po, qd x 5, detected EC1728, individual dogs;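 on Synovial fluid concentration D1: synovial fluid also sampled on Day 1 after the pain assessment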
Description: as §1
(§2) Pain and function were assessed by a questionnaire answered by blinded technicians based on observation of study animals housed at InterVivo. The survey was adapted from the canine brief pain inventory (CBPI), which was developed based on clinical questionnaires in which owners score the function and pain level of their pets with existing pain conditions ([Brown et al., 2007]). Modifications to the questionnaire attempted to account for differences between owner pain evaluation of pets and pain evaluation of laboratory dogs by technical staff. For survey administration, blinded technicians attempted to elicit objective behavior-specific measures of function and pain level across a variety of normal canine behaviors (e.g., walking, trotting, galloping, rearing, and stair-climbing, etc.). For this, one technician was responsible for soliciting the relevant behaviors from a dog using encouragement and/or food rewards, while the evaluating technician scored function and observable pain using the modified CBPI questionnaire. Subjects were tested daily on Days -7 through -3, to develop baseline scores, and again on Days 1 through 5 administered 1.5 h after dosing. Dosing occurred in the morning, and observations were recorded 1.5 h after dosing, to limit time-of-day variability. Questions are listed in Supplementary Table S3. Animals in treatment groups had blood and synovial fluid collected ∼2 h after the last dose on day 5 (immediately following the study questionnaire) to confirm plasma concentrations in treated animals. Full pharmacokinetic assessments were collected from a satellite group of animals so as not to interfere with pain assessment.

aged beagle dogs with OA = test: Pain and function assessment (modified CBPI questionnaire) in arthritic dogs; type: in vivo, dog
Description: The study was conducted as a blinded, parallel matched-group design. Dogs were randomized into groups based on pretreatment pain scores and each group was randomly assigned a treatment. Prior to randomization, each dog was assessed for arthritis by radiograph to assess the severity of OA by presence of osteophytes, subchondral sclerosis or joint effusion each scored on a scale of 0 (least) to 3 (worst) for each of 12 joints. Severity of the radiograph score was included in the randomization protocol and distributed between the groups, and there were no statistical differences between the averages of each group. Individual radiograph scores can be found in Supplementary Table S2. […] Compounds were dissolved in PEG300 to a concentration of 2.4 mg/mL (1 mg/kg) and 12 mg/mL (5 mg/kg) and administered as approximately 5 mL in size 12 gelatin capsules (Torpac) administered once daily on days 1 through 5. Vehicle group consisted of 5 mL PEG300 in capsule. Concurrent medications were not allowed and not needed during the study.
as §2, with “Animals in treatment groups had blood and synovial fluid collected ∼2 h after the last dose on day 5 (immediately following the study questionnaire) to confirm plasma concentrations in treated animals. Full pharmacokinetic assessments were collected from a satellite group of animals so as not to interfere with pain assessment.” left out
Canine pain and function data were analyzed using ANOVA, linear mixed effects model, with Tukey adjustment in R and repeated measures ANOVA. Correlations coefficients were calculated in Graphpad Prism using the non-parametric Spearman correlation coefficient. In vitro experiments were analyzed using ANOVA in Graphpad Prism. […]

[3] = female, po, 1 mg/kg, dosed EC1728 1 mg/kg oral qd, female dog, Day 1
[4] = female, po, 1 mg/kg, dosed EC1728 1 mg/kg oral qd, female dog, Day 5
[5] = female, po, 5 mg/kg, dosed EC1728 5 mg/kg oral qd, female dog, Day 1
[6] = female, po, 5 mg/kg, dosed EC1728 5 mg/kg oral qd, female dog, Day 5
[7] = male, po, 1 mg/kg, dosed EC1728 1 mg/kg oral qd, male dog, Day 1
[8] = male, po, 1 mg/kg, dosed EC1728 1 mg/kg oral qd, male dog, Day 5
[9] = male, po, 5 mg/kg, dosed EC1728 5 mg/kg oral qd, male dog, Day 1
[10] = male, po, 5 mg/kg, dosed EC1728 5 mg/kg oral qd, male dog, Day 5

O=C(Nc1ccc(OC(F)(F)F)cc1)N[C@H]1CC[C@H](Oc2ccc(C(=O)O)cc2)CC1 [EC1728, trans-4-{4-[3-(4-trifluoromethoxy-phenyl)-ureido]-cyclohexyloxy}-benzoic acid]
solubility (Solubility of sEHI): 97 ± 2 mg/mL (≈ 221 mM)
% Parent + NADPH (Microsomal stability; female dog liver microsomes): 98 ± 6%
% Parent − NADPH (Microsomal stability; female dog liver microsomes): 106 ± 9%
% Parent + NADPH (Microsomal stability; male dog liver microsomes): 103 ± 6%
% Parent − NADPH (Microsomal stability; male dog liver microsomes): 108 ± 8%
remaining at 1 h, 1 µM (Microsomal stability; pH 7.4, dog liver microsomes, 60-min incubation, sex not specified): > 95%
half-life ([1]; oral, satellite dogs, range over both compounds, Table 3, read-out: half-life): 24 to 40 h
AUC(0-t) [1, 3]: 1350 ng·h/mL
Cmax [1, 3]: 308 ng/mL
AUC(0-t) [1, 4]: 155000 ng·h/mL
Cmax [1, 4]: 4660 ng/mL
half-life ([1]; female, po, 1 mg/kg, read-out: T1/2 (converted)): 33 h
AUC(0-t) [1, 5]: 4940 ng·h/mL
Cmax [1, 5]: 1160 ng/mL
AUC(0-t) [1, 6]: 53200 ng·h/mL
Cmax [1, 6]: 4990 ng/mL
half-life ([1]; female, po, 5 mg/kg, read-out: T1/2 (converted)): 23 h
AUC(0-t) [1, 7]: 1690 ng·h/mL
Cmax [1, 7]: 330 ng/mL
AUC(0-t) [1, 8]: 32000 ng·h/mL
Cmax [1, 8]: 1900 ng/mL
half-life ([1]; male, po, 1 mg/kg, read-out: T1/2 (converted)): 27 h
AUC(0-t) [1, 9]: 3760 ng·h/mL
Cmax [1, 9]: 1100 ng/mL
AUC(0-t) [1, 10]: 96300 ng·h/mL
Cmax [1, 10]: 1930 ng/mL
half-life ([1]; male, po, 5 mg/kg, read-out: T1/2 (converted)): 25 h
concentration at 2 h ([2]; blood, 5 mg/kg, day 5, group without dog 2.4, read-out: Blood concentration, average for the remainder of the group): 395 ng/mL
concentration at 2 h ([2]; synovial fluid, 5 mg/kg, day 5, read-out: Synovial fluid concentration, averaged for the group): 988 ng/mL
concentration at 2 h ([2]; synovial fluid, 5 mg/kg, dog 2.4 (low exposure, removed from analysis), read-out: Synovial fluid concentration, dog 2.4): 80 to 95 ng/mL
Blood concentration D5 ([2]; dosed EC1728 1 mg/kg, 1 mg/kg): 31 ng/mL and 72 ng/mL and 76 ng/mL and 64 ng/mL and 82 ng/mL and 40 ng/mL and 36 ng/mL and 171 ng/mL
Synovial fluid concentration D1 ([2]; dosed EC1728 1 mg/kg, 1 mg/kg): 331 ng/mL and 206 ng/mL and 455 ng/mL and 232 ng/mL and 483 ng/mL and 111 ng/mL and 384 ng/mL and 917 ng/mL
Synovial fluid concentration D5 ([2]; dosed EC1728 1 mg/kg, 1 mg/kg): 239 ng/mL and 206 ng/mL and 378 ng/mL and 328 ng/mL and 315 ng/mL and 171 ng/mL and 214 ng/mL and 945 ng/mL
Blood concentration D5 ([2]; dosed EC1728 5 mg/kg, 5 mg/kg): 34 ng/mL and 206 ng/mL and 348 ng/mL and 314 ng/mL and 935 ng/mL and 228 ng/mL and 493 ng/mL and 244 ng/mL
Synovial fluid concentration D1 ([2]; dosed EC1728 5 mg/kg, 5 mg/kg): 2270 ng/mL and 301 ng/mL and 1180 ng/mL and 2220 ng/mL and 1470 ng/mL and 460 ng/mL and 95 ng/mL
Synovial fluid concentration D5 ([2]; dosed EC1728 5 mg/kg, 5 mg/kg): 1000 ng/mL and 1150 ng/mL and 833 ng/mL and 1330 ng/mL and 672 ng/mL and 668 ng/mL and 2170 ng/mL and 80 ng/mL
function scores compared to the other groups (trend) (aged beagle dogs with OA; 5 mg/kg oral once daily): tended to have increased function scores
pain compared to placebo / vehicle control (aged beagle dogs with OA; 5 mg/kg oral once daily for 5 days, p < 0.05): significantly reduced pain; also recorded: significantly less pain
increase in function (aged beagle dogs with OA; 5 mg/kg oral once daily, after 5-days of dosing): 16%
reduction in pain compared to predose values (maximum effect) (aged beagle dogs with OA; 5 mg/kg oral once daily, day 4, average): 44%
